# Laboratory results published in US12442042B2, “Epigenomic profiling reveals the somatic promoter landscape of primary gastric adenocarcinoma” (AGENCY FOR SCIENCE, TECHNOLOGY AND RESEARCH, priority 2016, dated 2025).
# Tests used:
# PBMCs = assay: EpiMAX assay: cytokine multiplex on supernatants of PBMCs stimulated with peptide pools; format: cell-based, human
# Method: A set of peptides for 15 representative alternative promoters was purchased from GenScript (GenScript). Peptide sequences and composition of peptide pools for each alternative promoter are described in Table 3. Control peptide pools for human Actin were purchased from JPT (PM-ACTS, PepMix™ Human (Actin) JPT). Peripheral blood mononuclear cells (PBMCs) were obtained from 9 healthy volunteers of whom 8 PBMC samples were HLA-typed (Table 3).
# PBMCs were labelled with 1 μM CFSE (Life Technologies, Thermo Fisher Scientific) and cultured at a density of 200,000 cells per well in complete culture medium (cRPMI comprising RPMI 1640 medium (Gibco, Thermo Fisher Scientific), 15 mM HEPES (Gibco), 1% non-essential amino acid (Gibco), 1 mM sodium pyruvate (Gibco), 1% penicillin/streptomycin (Gibco), 2 mM L-glutamine (Gibco), 50 μM β2-mercaptoethanol (Sigma, Merck), and 10% heat-inactivated FCS (Hyclone)) for 5 days. Individual peptide pools of each alternative promoter were added at the start of the culture at a concentration of 1 μg/ml for each peptide. At the end of day 5, cells were stained with LIVE/DEAD® fixable near-IR dead cell stain kit (Life Technologies), and labelled with CD4-BUV737 (BD), CD8-PacificBlue (BD), CD3-PE (BioLegend), CD19-PE/TexasRed (Beckman), and CD56-APC (BD). Analysis of T cell proliferation by CFSE dilution was performed by flow cytometry using a LSRII (BD). In addition, magnetic bead-based cytokine multiplex analysis (human cytokine panel 1, Millipore, Merck) was performed on cell culture supernatants to measure secreted cytokine levels.
# IM95 GC cells = assay: EZH2 inhibition: RNA-seq of GSK126-treated IM95 cells at promoter loci; format: cell-based, human
# Method: IM95 were treated with GSK126 (Selleck, USA), a selective EZH2 inhibitor, at a concentration of 5 μM. Cell proliferation was monitored in 96-well plates post-treatment with GSK126 using the CellTiter-Glo® Luminescent Cell Viability Assay (Promega) for three independent experiments. For RNA-seq analysis, total RNA was extracted using the Qiagen RNAeasy mini kit according to manufacturer's instructions. Cells were treated with GSK126 (Selleck, USA; dissolved in DMSO) at a concentration of 5 μM. Control cells were treated with the same concentration of DMSO (0.1%). RNAseq differential analysis for promoter loci was carried out using edgeR on read counts mapping to H3K4me3 regions estimated using featureCounts. RNAseq gene level differential analysis was performed using cuffdiff2.2.1.
# [1] = Donor 1 PBMCs stimulated with peptide pool
# [2] = Donor 2 PBMCs stimulated with peptide pool
# [3] = Donor 3 PBMCs stimulated with peptide pool
# [4] = Donor 4 PBMCs stimulated with peptide pool
# [5] = Donor 5 PBMCs stimulated with peptide pool
# [6] = Donor 6 PBMCs stimulated with peptide pool
# [7] = Donor 7 PBMCs stimulated with peptide pool
# [8] = Donor 8 PBMCs stimulated with peptide pool
# [9] = Donor 9 PBMCs stimulated with peptide pool
molecule,measurement,setting,value
Actin,Analyte concentration GM-CSF,PBMCs; [1],19.57 pg/mL
same,Analyte concentration IFNg,PBMCs; [1],147.18 pg/mL
same,Analyte concentration IL-2,PBMCs; [1],34.21 pg/mL
same,Analyte concentration IL-3,PBMCs; [1],1.46 pg/mL
same,Analyte concentration IL-4,PBMCs; [1],0.03 pg/mL
same,Analyte concentration IL-7,PBMCs; [1],0.085 pg/mL
same,Analyte concentration IL-9,PBMCs; [1],1.22 pg/mL
same,Analyte concentration IL-10,PBMCs; [1],10.1 pg/mL
same,Analyte concentration IL-13,PBMCs; [1],14.2 pg/mL
same,Analyte concentration IL-15,PBMCs; [1],0.925 pg/mL
same,Analyte concentration IL-17A,PBMCs; [1],0.02 pg/mL
same,Analyte concentration TNFa,PBMCs; [1],101.44 pg/mL
same,Analyte concentration sCD40L,PBMCs; [1],0.78 pg/mL
same,Fold change of total cytokine response (normalized against Actin control),PBMCs; [1],1.00
same,Total analytes,PBMCs; [1],331.40 pg/mL
same,Analyte concentration GM-CSF,PBMCs; [2],15.58 pg/mL
same,Analyte concentration IFNg,PBMCs; [2],7.71 pg/mL
same,Analyte concentration IL-2,PBMCs; [2],11.28 pg/mL
same,Analyte concentration IL-3,PBMCs; [2],0.76 pg/mL
same,Analyte concentration IL-4,PBMCs; [2],0.03 pg/mL
same,Analyte concentration IL-7,PBMCs; [2],1.73 pg/mL
same,Analyte concentration IL-9,PBMCs; [2],1.22 pg/mL
same,Analyte concentration IL-10,PBMCs; [2],5.29 pg/mL
same,Analyte concentration IL-13,PBMCs; [2],13.75 pg/mL
same,Analyte concentration IL-15,PBMCs; [2],0.925 pg/mL
same,Analyte concentration IL-17A,PBMCs; [2],0.02 pg/mL
same,Analyte concentration TNFa,PBMCs; [2],9.18 pg/mL
same,Analyte concentration sCD40L,PBMCs; [2],1.81 pg/mL
same,Fold change of total cytokine response (normalized against Actin control),PBMCs; [2],1.00
same,Total analytes,PBMCs; [2],69.29 pg/mL
same,Analyte concentration GM-CSF,PBMCs; [3],56.66 pg/mL
same,Analyte concentration IFNg,PBMCs; [3],60.86 pg/mL
same,Analyte concentration IL-2,PBMCs; [3],13.4 pg/mL
same,Analyte concentration IL-3,PBMCs; [3],0.56 pg/mL
same,Analyte concentration IL-4,PBMCs; [3],4.53 pg/mL
same,Analyte concentration IL-7,PBMCs; [3],0.085 pg/mL
same,Analyte concentration IL-9,PBMCs; [3],1.22 pg/mL
same,Analyte concentration IL-10,PBMCs; [3],2.56 pg/mL
same,Analyte concentration IL-13,PBMCs; [3],5.96 pg/mL
same,Analyte concentration IL-15,PBMCs; [3],0.925 pg/mL
same,Analyte concentration IL-17A,PBMCs; [3],2.89 pg/mL
same,Analyte concentration TNFa,PBMCs; [3],20.69 pg/mL
same,Analyte concentration sCD40L,PBMCs; [3],0.01 pg/mL
same,Fold change of total cytokine response (normalized against Actin control),PBMCs; [3],1.00
same,Total analytes,PBMCs; [3],170.35 pg/mL
same,Analyte concentration GM-CSF,PBMCs; [4],0.66 pg/mL
same,Analyte concentration IFNg,PBMCs; [4],0.01 pg/mL
same,Analyte concentration IL-2,PBMCs; [4],1.27 pg/mL
same,Analyte concentration IL-3,PBMCs; [4],0.005 pg/mL
same,Analyte concentration IL-4,PBMCs; [4],0.03 pg/mL
same,Analyte concentration IL-7,PBMCs; [4],0.085 pg/mL
same,Analyte concentration IL-9,PBMCs; [4],1.22 pg/mL
same,Analyte concentration IL-10,PBMCs; [4],0.18 pg/mL
same,Analyte concentration IL-13,PBMCs; [4],0.99 pg/mL
same,Analyte concentration IL-15,PBMCs; [4],0.925 pg/mL
same,Analyte concentration IL-17A,PBMCs; [4],0.02 pg/mL
same,Analyte concentration TNFa,PBMCs; [4],1.49 pg/mL
same,Analyte concentration sCD40L,PBMCs; [4],0.01 pg/mL
same,Fold change of total cytokine response (normalized against Actin control),PBMCs; [4],1.00
same,Total analytes,PBMCs; [4],6.90 pg/mL
same,Analyte concentration GM-CSF,PBMCs; [5],0.66 pg/mL
same,Analyte concentration IFNg,PBMCs; [5],1.65 pg/mL
same,Analyte concentration IL-2,PBMCs; [5],1.4 pg/mL
same,Analyte concentration IL-3,PBMCs; [5],0.005 pg/mL
same,Analyte concentration IL-4,PBMCs; [5],0.03 pg/mL
same,Analyte concentration IL-7,PBMCs; [5],0.085 pg/mL
same,Analyte concentration IL-9,PBMCs; [5],1.22 pg/mL
same,Analyte concentration IL-10,PBMCs; [5],5.5 pg/mL
same,Analyte concentration IL-13,PBMCs; [5],1.44 pg/mL
same,Analyte concentration IL-15,PBMCs; [5],0.925 pg/mL
same,Analyte concentration IL-17A,PBMCs; [5],0.02 pg/mL
same,Analyte concentration TNFa,PBMCs; [5],3.08 pg/mL
same,Analyte concentration sCD40L,PBMCs; [5],0.01 pg/mL
same,Fold change of total cytokine response (normalized against Actin control),PBMCs; [5],1.00
same,Total analytes,PBMCs; [5],16.03 pg/mL
same,Analyte concentration GM-CSF,PBMCs; [6],18.18 pg/mL
same,Analyte concentration IFNg,PBMCs; [6],135.48 pg/mL
same,Analyte concentration IL-2,PBMCs; [6],11.03 pg/mL
same,Analyte concentration IL-3,PBMCs; [6],0.5 pg/mL
same,Analyte concentration IL-4,PBMCs; [6],0.03 pg/mL
same,Analyte concentration IL-7,PBMCs; [6],0.085 pg/mL
same,Analyte concentration IL-9,PBMCs; [6],1.22 pg/mL
same,Analyte concentration IL-10,PBMCs; [6],4.66 pg/mL
same,Analyte concentration IL-13,PBMCs; [6],8.77 pg/mL
same,Analyte concentration IL-15,PBMCs; [6],0.925 pg/mL
same,Analyte concentration IL-17A,PBMCs; [6],2.22 pg/mL
same,Analyte concentration TNFa,PBMCs; [6],38.39 pg/mL
same,Analyte concentration sCD40L,PBMCs; [6],0.01 pg/mL
same,Fold change of total cytokine response (normalized against Actin control),PBMCs; [6],1.00
same,Total analytes,PBMCs; [6],222.13 pg/mL
same,Analyte concentration GM-CSF,PBMCs; [7],3.31 pg/mL
same,Analyte concentration IFNg,PBMCs; [7],6.53 pg/mL
same,Analyte concentration IL-2,PBMCs; [7],0.77 pg/mL
same,Analyte concentration IL-3,PBMCs; [7],0.01 pg/mL
same,Analyte concentration IL-4,PBMCs; [7],0.03 pg/mL
same,Analyte concentration IL-7,PBMCs; [7],2.29 pg/mL
same,Analyte concentration IL-9,PBMCs; [7],1.22 pg/mL
same,Analyte concentration IL-10,PBMCs; [7],7.7 pg/mL
same,Analyte concentration IL-13,PBMCs; [7],0.14 pg/mL
same,Analyte concentration IL-15,PBMCs; [7],0.925 pg/mL
same,Analyte concentration IL-17A,PBMCs; [7],0.02 pg/mL
same,Analyte concentration TNFa,PBMCs; [7],48.35 pg/mL
same,Analyte concentration sCD40L,PBMCs; [7],0.01 pg/mL
same,Fold change of total cytokine response (normalized against Actin control),PBMCs; [7],1.00
same,Total analytes,PBMCs; [7],71.31 pg/mL
same,Analyte concentration GM-CSF,PBMCs; [8],0.66 pg/mL
same,Analyte concentration IFNg,PBMCs; [8],1.12 pg/mL
same,Analyte concentration IL-2,PBMCs; [8],1.9 pg/mL
same,Analyte concentration IL-3,PBMCs; [8],0.22 pg/mL
same,Analyte concentration IL-4,PBMCs; [8],0.03 pg/mL
same,Analyte concentration IL-7,PBMCs; [8],0.085 pg/mL
same,Analyte concentration IL-9,PBMCs; [8],1.22 pg/mL
same,Analyte concentration IL-10,PBMCs; [8],3.61 pg/mL
same,Analyte concentration IL-13,PBMCs; [8],0.03 pg/mL
same,Analyte concentration IL-15,PBMCs; [8],0.925 pg/mL
same,Analyte concentration IL-17A,PBMCs; [8],0.02 pg/mL
same,Analyte concentration TNFa,PBMCs; [8],2.64 pg/mL
same,Analyte concentration sCD40L,PBMCs; [8],0.58 pg/mL
same,Fold change of total cytokine response (normalized against Actin control),PBMCs; [8],1.00
same,Total analytes,PBMCs; [8],13.04 pg/mL
same,Analyte concentration GM-CSF,PBMCs; [9],0.66 pg/mL
same,Analyte concentration IFNg,PBMCs; [9],3.49 pg/mL
same,Analyte concentration IL-2,PBMCs; [9],0.77 pg/mL
same,Analyte concentration IL-3,PBMCs; [9],0.36 pg/mL
same,Analyte concentration IL-4,PBMCs; [9],0.03 pg/mL
same,Analyte concentration IL-7,PBMCs; [9],2.01 pg/mL
same,Analyte concentration IL-9,PBMCs; [9],1.22 pg/mL
same,Analyte concentration IL-10,PBMCs; [9],2.13 pg/mL
same,Analyte concentration IL-13,PBMCs; [9],1.05 pg/mL
same,Analyte concentration IL-15,PBMCs; [9],0.925 pg/mL
same,Analyte concentration IL-17A,PBMCs; [9],0.58 pg/mL
same,Analyte concentration TNFa,PBMCs; [9],56.18 pg/mL
same,Analyte concentration sCD40L,PBMCs; [9],0.01 pg/mL
same,Fold change of total cytokine response (normalized against Actin control),PBMCs; [9],1.00
same,Total analytes,PBMCs; [9],69.42 pg/mL
CC[C@H](C)n1cc(C)c2c(C(=O)NCc3c(C)cc(C)[nH]c3=O)cc(-c3ccc(N4CCNCC4)nc3)cc21 [GSK126],deregulated promoters mapping to somatic promoters lost in primary GC that were reactivated,"IM95 GC cells; 78/87, FC>=2, qval<0.1",89.6%
same,gene sets of genes upregulated upon EZH2 inhibition,"IM95 GC cells; Day 6 and 9, RNA-seq",enriched in previously identified PRC2 target gene sets
same,"OR, somatic promoters vs all GSK126 regulated genes","IM95 GC cells; Fisher Test, P<0.001",9.21
same,"OR, somatic promoters vs unaltered promoters changing expression","IM95 GC cells; Fisher Test, P<0.001",1.46
same,promoters deregulated in total,"IM95 GC cells; GSK126 5 μM, Day 6 and 9, RNA-seq",2134
same,proportion of somatic promoters deregulated,"IM95 GC cells; GSK126 5 μM, RNA-seq",12.8%
same,proportion of unaltered promoters exhibiting deregulation,"IM95 GC cells; GSK126 5 μM, RNA-seq",8.8%
same,somatic promoters deregulated (of 1959 promoters exhibiting somatic alterations in primary GCs),"IM95 GC cells; GSK126 5 μM, RNA-seq",251
same,total proportion of genes (as defined by Gencode) regulated,"IM95 GC cells; GSK126 5 μM, RNA-seq",1.5%
same,expression at PSCA TSS (lost somatic promoter),IM95 GC cells; day 6 (D6) and Day 9 (D9),Gain of expression
same,expression at SLC9A9 TSS (lost somatic promoter),IM95 GC cells; day 6 (D6) and Day 9 (D9),Gain of expression
same,expression at alternative promoter ESRRG (lost promoter activity),IM95 GC cells; day 6 (D6) and Day 9 (D9),Gain of expression
